Measurements from BindingDB's records for doi:10.1021/jm9000242 (Bristol Myers Squibb, 2009).
pIC50: −log10 of the molar value.

Biological target: T1, Corticotropin-releasing factor receptor 1 (Rattus norvegicus, UniProt P35353)
T1 sequence (P35353 whole entry): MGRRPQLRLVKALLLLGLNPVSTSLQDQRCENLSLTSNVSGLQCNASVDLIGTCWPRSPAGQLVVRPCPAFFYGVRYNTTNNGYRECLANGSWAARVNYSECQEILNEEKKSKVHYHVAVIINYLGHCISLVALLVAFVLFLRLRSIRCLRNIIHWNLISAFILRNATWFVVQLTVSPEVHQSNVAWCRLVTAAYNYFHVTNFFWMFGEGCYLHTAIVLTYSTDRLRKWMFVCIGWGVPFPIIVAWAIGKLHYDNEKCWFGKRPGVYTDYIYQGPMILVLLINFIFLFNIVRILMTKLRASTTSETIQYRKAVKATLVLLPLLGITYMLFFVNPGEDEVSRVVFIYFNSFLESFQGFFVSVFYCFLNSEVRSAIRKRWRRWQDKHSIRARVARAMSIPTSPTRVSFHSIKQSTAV
Test: In Vitro Binding Autoradiography
Method: Naive rats were sacrificed by decapitation, and the brain and pituitary were collected. Slide-mounted brain sections were preincubated in an assay solution containing [125I]oCRF for 2 h at room temperature. Concentration-related displacement of test compound was assessed by including the compound in the incubation solution. The adjacent sections were incubated under the same conditions in the presence of 1 uM alpha-helical CRF for defining nonspecific binding for CRF receptor. Nonspecific binding for CRF1 receptors was defined by 1 uM DMP696 or CP-154,526. After incubation, the sections were rinsed, dried, and then placed in cassettes against iodine-sensitive storage phosphor-imaging screens (PerkinElmer Life Sciences), and the screens were then digitally scanned with a Cyclone storage phosphor-imaging system (PerkinElmer Life Sciences). Captured storage phosphor images were analyzed with OptiQuant Acquisition and Analysis software (PerkinElmer Life Sciences).

Row | pIC50 (pH 7.2, 23 °C) | pIC50 (25 °C) | SMILES
1 | 8.24 |  | CC[C@@H](C)Nc1nc(C)nc2c(-c3c(C)cc(OC)cc3OC)c(C)nn12 [Pyrazolo[1,5-a]-1,3,5-triazine, 12-16]
2 | 8.83 |  | CCCN(CC1CC1)c1nc(C)nc2c(-c3c(C)cc(OC)cc3OC)c(C)nn12 [Pyrazolo[1,5-a]-1,3,5-triazine, 12-22]
3 |  | 8.37 | CCCCN(C)c1nc(C)nc2c(-c3c(C)cc(OC)cc3C)c(C)nn12 [Pyrazolo[1,5-a]-1,3,5-triazine, 12-32]
